From patent US20100104644A1, “Compositions and Methods for Treating or Preventing Ophthalmic Disease” (University of Florida Research Foundation, Inc., priority 2006, published 2010)
“Also recorded” adds a separate entry of the source.

How the values were obtained:
P23H opsin = assay: P23H yield in stable cells expressing opsin treated with compound; assay type: cell-based
Description: Stable cell lines expressing opsin protein were generated using the Flp-In T-Rex system. The stable cells were grown in DMEM high glucose media supplemented with 10% (v/v) fetal bovine serum, antibiotic/antimycotic solution, […] blasticidin and hygromycin at 37° C. in presence of 5% CO2. For all the experiments the cells were allowed to reach confluence and were induced to produce opsin with 1 μg/ml tetracycline after change of media and then compounds were added. The plates were incubated for 48 hours after which the cells were harvested.
Proteins were separated on SDS-PAGE gels and western blotted as described in Noorwez et al. (2004).

[1] = test system: purified wt (wild-type) opsin; assay: 500 nm absorbing pigment formation on addition of compound alone to purified opsin; assay type: biochemical; settings: compound added to purified WT opsin without 11-cis-retinal
[2] = test system: purified wild-type (WT) opsin; assay: Opsin regeneration: pigment formation of purified WT opsin with 11-cis-retinal in the presence of compound; assay type: biochemical; settings: for inhibition of pigment formation / binding of 11-cis-retinal to opsin: in vitro

Row | SMILES | % Increase in P23H Yield (P23H opsin; Table 1) [%] | % Increase in P23H Yield (P23H opsin; Table 2, with spread) [%] | other results
1 | CC(C)N(CC#N)C(C)C [Compound 6, diisopropylaminoacetonitrile] | 28 | 25 ± 3 | 
2 | Cn1cc(C(N)=O)ccc1=N [Compound 66688, 6-imino-1-methyl-1,6-dihydro-3-pyridinecarboxamine] |  | 40 ± 9 | 
3 | N#Cc1cn(Cc2ccco2)c(=O)[nH]c1=O [Compound 2, 1-furan-2-ylmethyl-2,4-dioxo-1,2,3,4-tetrahydro-pyrimidine-5-carbonitrile] | 43 | 40 ± 7 | 
4 | N#Cc1ccc2c(c1)OCO2 [Compound 27009, 3,4-Methylenedioxybenzonitrile] |  | 20 ± 5 | 
5 | Oc1ccccc1C=Nn1cnnc1 [Compound 121968, 4-Salicylideneamino-1,2,4-triazol] |  | 29 ± 5 | 
6 | O=[PH](O)c1ccccc1 [Compound 3, phenyl-phosphinic acid] | 32 | 40 ± 3 | 
7 | CC(=O)c1c(C)n[nH]c1C [Compound 1, 1-(3,5-dimethyl-1H-pyrazol-4-yl)ethanone] | 31 | 30 ± 5 | formation of 500 nm absorbing pigment by the compound with opsin ([1]; listed as SN10011): No pigment was formed; also recorded: no 500 nm absorbing pigment was generated; inhibition of pigment formation of WT opsin with 11-cis-retinal ([2]; 2 mM and 5 mM concentrations): inhibited; inhibition of pigment formation / binding of 11-cis-retinal to opsin ([2]; listed as SN 10011): inhibits the binding of 11-cis-retinal to opsin in vitro; inhibition of pigment formation / binding of 11-cis-retinal to opsin ([2]; listed as SN10011): reversibly inhibits binding of 11-cis-retinal; also recorded: significant effect on inhibition of pigment formation
8 | Cc1cc([N+](=O)[O-])ccn1 [Compound 4, 2-methyl-4-nitro-pyridine] | 24 | 25 ± 8 | 
9 | CC(=O)/C=C/C1=C(C)CCCC1(C)C [β-ionone, reference compound] |  |  | formation of 500 nm absorbing pigment by the compound with opsin [1]: does not form a light absorbing pigment with opsin; also recorded: does not itself form a 500 nm absorbing pigment with opsin; also recorded: no 500 nm absorbing pigment was formed; inhibition of pigment formation / binding of 11-cis-retinal to opsin [2]: inhibit binding of retinal to the site; also recorded: inhibited opsin regeneration in a dose dependent manner
10 | O=C1NC(CCO)C(=O)NC1CCO (stereo not shown) [Compound 5, 3,6-bis-(2-hydroxyethy)-piperazine-2,5-dione] | 15 | 30 ± 10 | 
11 | Nn1nnc2ccccc21 [Compound 114498, 1H-1,2,3-benzotriazol-1-amine] |  | 30 ± 6 | 
